Assay results published in patent US20240116971A1, “NMN AND DERIVATIVES FOR ITS USE IN THE TREATMENT OF DEPRESSION AND/OR ANXIETY IN PATIENTS HAVING A FORM OF PARKINSONISM” (Nuvamid SA, priority 2021, published 2024).

Tested on: MSA patients
Assay: Efficacy on the UMSARS scale
Assay type: in vivo, human
Settings: for UMSARS activities of daily living sub-score, change: score 0 to 48, lower is better, p-value >0.05
Description: For each eligible patient: during the first visit, the investigator carries out a specific complementary clinical examination MSA (validated specific scale: UMSARS) in order to score the basal level of the patient at inclusion on 4 axes: activities of daily living (12 items), motor level (14 items), orthostatic hypotension [4 measures: BP standing/sleeping (2 min); CF standing/sleeping (2 min) and orthostatic symptoms [Y/N] and finally, decide on their level of disability (1 item). During this visit, they are given pillbox No 1. They are told to start the product under study the next morning, on D1. In fact, the first intake of the dietary supplement can be taken the next morning with breakfast (2 capsules). Pill box No 1 must be returned at visit V2 (D15) to check compliance. A first daily follow-up notebook (follow-up notebook no 1) is given to the patient to record the intake of the food supplement, the concomitant treatments (if applicable) and any undesirable events that may have occurred. Follow-up notebook no 1 should be returned to the investigator at the V2 follow-up visit. The nurse goes to the patient's home 2 days before each follow-up visit in order to carry out the blood test (safety biology), take the hemodynamic constants standing/lying down (after a 2 minute rest): SAP/DAP and HR which is filled in the patient's follow-up notebook. The nurse checks the patient's compliance with the pillbox and the follow-up booklet. The nurse also reminds the patient not to forget to bring back the pill dispenser and the follow-up booklet at each visit. The investigator also takes the hemodynamic constants of the patient standing and lying down (after 2 minutes rest): SAP/DAP and HR. During this consultation, the patient/carer is also asked to answer a specific quality of life questionnaire (MSA-QoL questionnaire). If the patient meets all the eligibility criteria (apart from biology), the neurologist gives them a medical prescription to carry out a biological assessment. This biological assessment must be carried out within 3 days depending on the patient's availability. To do this, a nurse visits the patient at his/her home to collect the biological samples and to send it to the Medical Analysis Laboratories, the local reference laboratory for this research.
During the third visit at D45 and fourth visit at D90, the investigator also carries out a specific complementary clinical examination MSA (validated specific scale: UMSARS) in order to score the patient's level after 3 months of NMN supplementation on 4 axes: activities of daily living (12 items), motor level (14 items), orthostatic hypotension [4 measures: BP standing/sleeping (2 min); HR standing/sleeping (2 min) and orthostatic symptoms Y/N] and finally decide on their level of disability (1 item).

NC(=O)c1ccc[n+]([C@@H]2O[C@H](COP(=O)([O-])O)[C@@H](O)[C@H]2O)c1 [beta-NMN, nicotinamide mononucleotide]
UMSARS Motor Examination Scale: improved items (NMN 400 mg/day, 3 months): facial expression and tremor at rest
UMSARS activities of daily living: improved items (NMN 400 mg/day, 3 months): speech, writing, eating and handling cutlery, dressing, risk of falling and orthostatic symptoms
UMSARS disability scale score (PP population, 3.5±1.0 points at VO, scale 1 to 5): maintained at V3 and V4
Orthostatic hypotension (OH) (V3 and V4, OH had been detected in these patients at previous visits, other patients unchanged): two patients showed no signs of OH at V3 and V4
functional situation of the patients (at 1.5 months and 3 months, mITT and PP populations): slight improvement
UMSARS motor examination, overall (at 3 months, mITT and PP): did not show any improvement in the motor examination but did not show any deterioration
UMSARS activities of daily living sub-score, change (mITT population, V3 vs VO (16.3±6.8 points)): −0.3 point
UMSARS Motor Examination Scale sub-score, change (mITT population, V3 vs VO (18.5±11.3 points), score 0 to 56, lower is better): −0.6 points
UMSARS Motor Examination Scale sub-score (mITT population, V4, VO 18.5±11.3 points): rises again at V4 to reach the score observed at VO
UMSARS activities of daily living sub-score, change (mITT population, V4 vs VO (16.3±6.8 points)): −1.0 point
UMSARS disability scale score (mITT population, 2.9±1.4 points at VO, scale 1 to 5, lower is more independent): perfectly maintained at V3 and V4
